Reference: the supplement of paper PMC11061612

How the values were obtained:
Test in all cases: combination Emax (second highest fraction inhibited in the dose matrix, 72 h); higher = more inhibition; extreme values may be limits of the assay
ACHN (Kidney Carcinoma) = tested on: ACHN (Kidney Carcinoma)
How it was run: (§1)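 After 24 hours at 37°C and 5% CO2 in 1536-well plates, cells in DMEM/F12 or RPMI plus 10% FBS received two-drug dose matrices for 72 hours. Viability came from CellTiter-Glo 2.0 luminescence and was scaled as inhibition, anchored at 0 by vehicle wells and at 1 by blank wells. Combination Emax is taken as the second-highest inhibition in the matrix, and Bliss excess as the observed combination effect less EA + EB − EA·EB, with EA and EB the single-agent effects.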

[1] = tested on: AMO-1 (Plasma Cell Myeloma)
How it was run: as §1

[2] = tested on: BT-549 (Breast Carcinoma)
How it was run: as §1

[3] = tested on: Caov-4 (Ovarian Carcinoma)
How it was run: as §1

[4] = tested on: HGC-27 (Gastric Carcinoma)
How it was run: as §1

[5] = tested on: KYSE-450 (Esophageal Squamous Cell Carcinoma)
How it was run: as §1

[6] = tested on: LU-65 (Non-Small Cell Lung Carcinoma)
How it was run: as §1

[7] = tested on: MIA-PaCa-2 (Pancreatic Carcinoma)
How it was run: as §1

[8] = tested on: MLMA (Other Blood Carcinomas)
How it was run: as §1

NB69 (Neuroblastoma) = tested on: NB69 (Neuroblastoma)
How it was run: as §1

[9] = tested on: NCI-H727 (Other Solid Carcinomas)
How it was run: as §1

[10] = tested on: RF-48 (B-Cell Non-Hodgkin's Lymphoma)
How it was run: as §1

[11] = tested on: SW13 (Other Solid Carcinomas)
How it was run: as §1

[12] = tested on: C-4-I (Cervical Carcinoma)
How it was run: as §1

[13] = tested on: KMOE-2 (Acute Myeloid Leukemia)
How it was run: as §1

[14] = tested on: OE19 (Esophageal Adenocarcinoma)
How it was run: as §1

[15] = tested on: OSC-20 (Oral Cavity Carcinoma)
How it was run: as §1

[16] = tested on: VA-ES-BJ (Other Solid Carcinomas)
How it was run: as §1

[17] = tested on: NCI-H1915 (Non-Small Cell Lung Carcinoma)
How it was run: as §1

[18] = tested on: TE-1 (Esophageal Squamous Cell Carcinoma)
How it was run: as §1

Row | SMILES | combination Emax (ACHN (Kidney Carcinoma)) | combination Emax [1] | combination Emax [2] | combination Emax [3] | combination Emax [4] | combination Emax [5] | combination Emax [6] | combination Emax [7] | combination Emax [8] | combination Emax (NB69 (Neuroblastoma)) | combination Emax [9] | combination Emax [10] | combination Emax [11] | combination Emax [12] | combination Emax [13] | combination Emax [14] | combination Emax [15] | combination Emax [16] | combination Emax [17] | combination Emax [18]
1 | CS(=O)(=O)CCNCc1ccc(-c2ccc3ncnc(Nc4ccc(OCc5cccc(F)c5)c(Cl)c4)c3c2)o1 [Lapatinib] + NC1(c2ccc(-c3nc4ccn5c(=O)[nH]nc5c4cc3-c3ccccc3)cc2)CCC1 [MK-2206] (first compound max 10 µM, 7x7, partner max 10 µM) | 0.676 | 0.963 | 0.583 | 0.878 | 0.988 | 0.602 | 0.649 | 0.929 | 0.945 | 0.941 | 0.88 | 0.658 | 0.902 |  |  |  |  |  |  | 
2 | C[C@@H](Nc1cc(F)cc(F)c1)c1cc(C(=O)N(C)C)cc2c(=O)cc(N3CCOCC3)oc12 [AZD8186] + C1CN(CCC1(C(=O)N[C@@H](CCO)C2=CC=C(C=C2)Cl)N)C3=NC=NC4=C3C=CN4 [AZD5363] (first compound max 10 µM, 7x7, partner max 10 µM) | 0.414 | 0.506 | 0.343 | 0.309 |  | 0.31 | 0.615 | 0.258 | 0.623 | 0.659 | 0.411 | 0.432 | 0.251 |  |  |  |  |  |  | 
3 | CCc1c2c(nc3ccc(O)cc13)-c1cc3c(c(=O)n1C2)COC(=O)[C@]3(O)CC [SN-38] + O=C(c1cc(Cc2n[nH]c(=O)c3ccccc23)ccc1F)N1CCN(C(=O)C2CC2)CC1 [Olaparib] (first compound max 0.3 µM, 7x7, partner max 10 µM) | 0.912 | 0.952 | 0.636 | 0.937 | 0.852 | 0.671 | 0.87 | 0.935 | 0.858 | 0.967 | 0.256 | 0.775 | 0.962 | 0.928 | 0.983 | 0.309 | 0.746 | 0.818 |  | 
4 | C[C@@H]1COCCN1c1cc(C2([S@](C)(=N)=O)CC2)nc(-c2ccnc3[nH]ccc23)n1 [AZD6738] + Nc1ccn([C@@H]2O[C@H](CO)[C@@H](O)C2(F)F)c(=O)n1 [Gemcitabine] (first compound max 10 µM, 7x7, partner max 0.3 µM) | 0.875 | 0.967 | 0.797 | 0.894 |  | 0.862 | 0.848 | 0.947 | 0.794 | 1 | 0.526 | 0.77 | 0.932 |  |  |  |  |  |  | 
5 | Cc1c2c(nn1C)CSCc1cc(n(C)n1)CSc1cc(c3ccccc3c1)OCCCc1c(C(=O)O)n(C)c3c-2c(Cl)ccc13 [AZD5991] + Nc1ccn([C@@H]2O[C@H](CO)[C@@H](O)C2(F)F)c(=O)n1 [Gemcitabine] (first compound max 1 µM, 7x7, partner max 0.3 µM) | 0.744 | 1 | 0.395 | 0.83 |  | 0.459 | 0.627 | 0.85 | 0.821 | 0.99 | 0.283 | 0.679 | 0.981 |  |  |  |  |  |  | 
6 | Cc1nc(-c2cn3c(n2)-c2ccc(-c4cnn(C(C)(C)C(N)=O)c4)cc2OCC3)n(C(C)C)n1 [Taselisib] + O=C(Nc1ccc2[nH]nc(-c3ccncc3)c2c1)[C@@H]1CCN(CC(=O)N2CCN(c3ccc(-c4ncccn4)cc3)CC2)C1 [SCH772984] (first compound max 10 µM, 7x7, partner max 5 µM) | 0.692 | 0.761 | 0.501 | 0.763 |  | 0.725 | 0.991 | 0.797 | 0.561 | 0.997 | 0.958 | 0.36 | 0.894 |  |  |  |  |  |  | 
7 | CS(=O)(=O)CCNCc1ccc(-c2ccc3ncnc(Nc4ccc(OCc5cccc(F)c5)c(Cl)c4)c3c2)o1 [Lapatinib] + Cn1cnc2c(F)c(Nc3ccc(Br)cc3Cl)c(C(=O)NOCCO)cc21 [Selumetinib] (first compound max 10 µM, 7x7, partner max 10 µM) | 0.577 | 0.894 | 0.32 | 0.694 |  | 0.41 | 0.701 | 0.57 | 0.316 | 0.916 | 0.631 | 0.275 | 0.687 |  |  |  |  |  |  | 
8 | C=CCn1c(=O)c2cnc(Nc3ccc(N4CCN(C)CC4)cc3)nc2n1-c1cccc(C(C)(C)O)n1 [AZD1775] + Nc1ccn([C@@H]2O[C@H](CO)[C@@H](O)C2(F)F)c(=O)n1 [Gemcitabine] (first compound max 1 µM, partner max 0.3 µM) | 0.853 | 0.959 | 0.827 | 0.837 |  | 0.875 | 0.848 | 0.947 | 0.815 | 1 | 0.392 | 0.727 | 0.928 |  |  |  |  |  |  | 
9 | C[C@@H]1COCCN1c1cc(C2([S@](C)(=N)=O)CC2)nc(-c2ccnc3[nH]ccc23)n1 [AZD6738] + C1CC(C1)(C(=O)[O-])C(=O)[O-].N.N.[Pt+2] [Carboplatin] (first compound max 10 µM, 7x7, partner max 10 µM) | 0.819 | 0.88 | 0.51 | 0.813 |  | 0.312 | 0.703 | 0.547 | 0.553 | 0.857 | 0.472 | 0.329 | 0.344 |  |  |  |  |  |  | 
10 | Cc1c2c(nn1C)CSCc1cc(n(C)n1)CSc1cc(c3ccccc3c1)OCCCc1c(C(=O)O)n(C)c3c-2c(Cl)ccc13 [AZD5991] + CN(C)CCCOc1ccc(-c2ccc3ncc4c(c3c2)n(C2CCOCC2)c(=O)n4C)cn1 [AZD0156] (first compound max 1 µM, 7x7, partner max 1 µM) | 0.179 | 1 | 0.334 | 0.511 | 0.51 | 0.251 | 0.366 | 0.289 | 0.397 | 0.666 | 0.289 |  | 0.828 | 1 | 0.797 | 0.573 | 0.256 | 0.243 | 0.439 | 0.635
11 | C[C@@H](Nc1cc(F)cc(F)c1)c1cc(C(=O)N(C)C)cc2c(=O)cc(N3CCOCC3)oc12 [AZD8186] + CC(=O)c1c(C)c2cnc(Nc3ccc(N4CCNCC4)cn3)nc2n(C2CCCC2)c1=O [Palbociclib] (first compound max 10 µM, 7x7, partner max 10 µM) | 0.661 | 0.673 | 0.392 | 0.29 |  | 0.378 | 0.312 | 0.471 | 0.847 | 0.927 | 0.362 | 0.4 | 0.316 |  |  |  |  |  |  | 
12 | Cc1c2c(nn1C)CSCc1cc(n(C)n1)CSc1cc(c3ccccc3c1)OCCCc1c(C(=O)O)n(C)c3c-2c(Cl)ccc13 [AZD5991] + C1CN(CCC1(C(=O)N[C@@H](CCO)C2=CC=C(C=C2)Cl)N)C3=NC=NC4=C3C=CN4 [Capivasertib] (first compound max 1 µM, 7x7, partner max 3 µM) |  | 1 | 0.432 | 0.493 | 0.861 | 0.376 | 0.543 | 0.244 | 0.407 | 0.794 | 0.374 | 0.353 | 0.967 | 1 | 0.793 | 0.442 | 0.199 | 0.227 | 0.18 | 0.553
13 | C[C@@H](Oc1cc(-c2cnn(C3CCNCC3)c2)cnc1N)c1c(Cl)ccc(F)c1Cl [Crizotinib] + CC1=C(C(=CC=C1)Cl)NC(=O)C2=CN=C(S2)NC3=CC(=NC(=N3)C)N4CCN(CC4)CCO [Dasatinib] (first compound max 10 µM, 7x7, partner max 2 µM) | 0.756 | 0.954 | 0.679 | 0.414 |  | 0.567 | 0.852 | 0.608 | 0.529 | 0.951 | 0.79 | 0.365 | 0.736 |  |  |  |  |  |  | 
14 | CC1(C)CCC(CN2CCN(c3ccc(C(=O)NS(=O)(=O)c4ccc(NCC5CCOCC5)c([N+](=O)[O-])c4)c(Oc4cnc5[nH]ccc5c4)c3)CC2)=C(c2ccc(Cl)cc2)C1 [Venetoclax] + CS(=O)(=O)CCNCc1ccc(-c2ccc3ncnc(Nc4ccc(OCc5cccc(F)c5)c(Cl)c4)c3c2)o1 [Lapatinib] (first compound max 1 µM, 7x7, partner max 10 µM) | 0.52 | 0.882 | 0.249 | 0.304 |  | 0.34 | 0.207 | 0.272 | 0.117 | 0.598 | 0.246 | 0.34 | 0.549 |  |  |  |  |  |  | 
15 | CN(CCO)CC[C@H](CSc1ccccc1)Nc1ccc(S(=O)(=O)NC(=O)c2ccc(N3CCC([C@@H](O)c4ccccc4-c4ccc(Cl)cc4)CC3)cc2)cc1S(=O)(=O)C(F)(F)F [AZD4320] + CS(=O)(=O)CCNCc1ccc(-c2ccc3ncnc(Nc4ccc(OCc5cccc(F)c5)c(Cl)c4)c3c2)o1 [Lapatinib] (first compound max 1 µM, 7x7, partner max 10 µM) | 0.466 | 0.926 | 0.633 | 0.955 |  | 0.41 | 0.368 | 0.832 | 0.497 | 0.983 | 0.96 | 0.874 | 0.804 |  |  |  |  |  |  | 
